From ChEMBL document CHEMBL1201862, “PubChem BioAssay data set” (2004)
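Briefly, cells in 96-well plates were exposed to five compound concentrations for 48 h, and endpoints were estimated by linear interpolation. GI50 is the concentration that inhibits growth by half.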 Calls of active or inactive are those of the source. Rule as the data show it: active = GI50 up to about 1.1 µM and inactive = higher.

Columns and labels:
Assay in all cases: inhibition of tumour cell growth, NCI panel, 48 h
786-0 = test system: 786-0
A498 = test system: A498
A549 = test system: A549
ACHN = test system: ACHN
BT-549 = test system: BT-549
CAKI-1 = test system: CAKI-1
CCRF-CEM = test system: CCRF-CEM
COLO 205 = test system: COLO 205
DU-145 = test system: DU-145
EKVX = test system: EKVX
HCC 2998 = test system: HCC 2998
HCT-116 = test system: HCT-116
HCT-15 = test system: HCT-15
HL-60 = test system: HL-60
HOP-62 = test system: HOP-62
HOP-92 = test system: HOP-92
HT-29 = test system: HT-29
Hs-578T = test system: Hs-578T
IGROV-1 = test system: IGROV-1
K562 = test system: K562
KM12 = test system: KM12
LOX IMVI = test system: LOX IMVI
M14 = test system: M14
MCF7 = test system: MCF7
MDA-MB-435 = test system: MDA-MB-435
MDA-N = test system: MDA-N
MOLT-4 = test system: MOLT-4
Malme-3M = test system: Malme-3M
NCI-H226 = test system: NCI-H226
NCI-H23 = test system: NCI-H23
NCI-H460 = test system: NCI-H460
NCI-H522 = test system: NCI-H522
NCI/ADR-RES = test system: NCI/ADR-RES
OVCAR-3 = test system: OVCAR-3
OVCAR-4 = test system: OVCAR-4
OVCAR-5 = test system: OVCAR-5
OVCAR-8 = test system: OVCAR-8
RPMI-8226 = test system: RPMI-8226
RXF 393 = test system: RXF 393
SF-268 = test system: SF-268
SF-295 = test system: SF-295
SF-539 = test system: SF-539
SK-MEL-28 = test system: SK-MEL-28
SK-MEL-5 = test system: SK-MEL-5
SK-OV-3 = test system: SK-OV-3
SN12C = test system: SN12C
SNB-19 = test system: SNB-19
SNB-75 = test system: SNB-75
SR = test system: SR
SW-620 = test system: SW-620
T47D = test system: T47D
TK-10 = test system: TK-10
UACC-257 = test system: UACC-257
UACC-62 = test system: UACC-62
UO-31 = test system: UO-31
MDA-MB-231 = test system: MDA-MB-231
PC-3 = test system: PC-3
SK-MEL-2 = test system: SK-MEL-2
U-251 = test system: U-251

## CC(C)(C)c1ccc(C(C)(C)C)c(N2C(=O)C3ON=C(c4ccc([N+](=O)[O-])cc4)C3C2=O)c1 (stereo not given)
786-0
  GI50: 3.15 µM (inactive)
A498
  GI50: 5.96 µM (inactive)
A549
  GI50: 5.61 µM (inactive)
ACHN
  GI50: 15.2 µM (inactive)
BT-549
  GI50: > 25 µM (inactive)
CAKI-1
  GI50: > 25 µM (inactive)
CCRF-CEM
  GI50: > 25 µM (inactive)
COLO 205
  GI50: > 25 µM (inactive)
DU-145
  GI50: 10.8 µM (inactive)
EKVX
  GI50: 20.3 µM (inactive)
HCC 2998
  GI50: 5.02 µM (inactive)
HCT-116
  GI50: 13.7 µM (inactive)
HCT-15
  GI50: 20.3 µM
HL-60
  GI50: > 25 µM (inactive)
HOP-62
  GI50: 23.4 µM (inactive)
HOP-92
  GI50: 9.46 µM (inactive)
HT-29
  GI50: 21.4 µM (inactive)
Hs-578T
  GI50: 6.98 µM (inactive)
IGROV-1
  GI50: 4.5 µM (inactive)
K562
  GI50: 11 µM (inactive)
KM12
  GI50: > 25 µM (inactive)
LOX IMVI
  GI50: 9.04 µM (inactive)
M14
  GI50: > 25 µM (inactive)
MCF7
  GI50: 22.8 µM (inactive)
MDA-MB-435
  GI50: 8.77 µM (inactive)
MDA-N
  GI50: 7.38 µM (inactive)
MOLT-4
  GI50: > 25 µM (inactive)
Malme-3M
  GI50: > 25 µM (inactive)
NCI-H226
  GI50: 18.6 µM (inactive)
NCI-H23
  GI50: > 25 µM (inactive)
NCI-H460
  GI50: 6.75 µM (inactive)
NCI-H522
  GI50: 18.4 µM (inactive)
NCI/ADR-RES
  GI50: 17.3 µM (inactive)
OVCAR-3
  GI50: 10.5 µM (inactive)
OVCAR-4
  GI50: 8.57 µM (inactive)
OVCAR-5
  GI50: > 25 µM (inactive)
OVCAR-8
  GI50: 10.4 µM (inactive)
RPMI-8226
  GI50: 10 µM (inactive)
RXF 393
  GI50: 15.1 µM (inactive)
SF-268
  GI50: 13.7 µM (inactive)
SF-295
  GI50: 12.9 µM (inactive)
SF-539
  GI50: > 25 µM (inactive)
SK-MEL-28
  GI50: > 25 µM (inactive)
SK-MEL-5
  GI50: > 25 µM (inactive)
SK-OV-3
  GI50: > 25 µM (inactive)
SN12C
  GI50: > 25 µM (inactive)
SNB-19
  GI50: > 25 µM (inactive)
SNB-75
  GI50: 5.07 µM (inactive)
SR
  GI50: 3.48 µM (inactive)
SW-620
  GI50: 16.2 µM (inactive)
T47D
  GI50: > 25 µM (inactive)
TK-10
  GI50: > 25 µM (inactive)
UACC-257
  GI50: > 25 µM (inactive)
UACC-62
  GI50: 17.8 µM (inactive)
UO-31
  GI50: 22.1 µM (inactive)

## CCOC(=O)c1sc2nc(SC)nc3c2c1NC(=O)CN3c1cccc(F)c1
A498
  GI50: 18.2 µM (inactive)
A549
  GI50: 14 µM (inactive)
ACHN
  GI50: 13 µM (inactive)
BT-549
  GI50: 7.29 µM (inactive)
CAKI-1
  GI50: 44.3 µM (inactive)
COLO 205
  GI50: 17.5 µM (inactive)
DU-145
  GI50: 26.7 µM (inactive)
EKVX
  GI50: 46 µM (inactive)
HCT-116
  GI50: 18.2 µM (inactive)
HL-60
  GI50: 0.491 µM (active)
HOP-62
  GI50: 14.5 µM (inactive)
HOP-92
  GI50: 22.5 µM (inactive)
HT-29
  GI50: 32.6 µM (inactive)
Hs-578T
  GI50: 29.2 µM (inactive)
IGROV-1
  GI50: 61.8 µM (inactive)
K562
  GI50: 22.4 µM (inactive)
KM12
  GI50: 80.5 µM (inactive)
LOX IMVI
  GI50: 17.8 µM (inactive)
M14
  GI50: 20.5 µM (inactive)
MCF7
  GI50: 29 µM (inactive)
MDA-MB-231
  GI50: 16.1 µM (inactive)
MDA-MB-435
  GI50: 27.5 µM (inactive)
MDA-N
  GI50: 29.8 µM (inactive)
MOLT-4
  GI50: 30 µM (inactive)
Malme-3M
  GI50: 30.3 µM (inactive)
NCI-H226
  GI50: 6.93 µM (inactive)
NCI-H23
  GI50: 27 µM (inactive)
NCI-H460
  GI50: 26.4 µM (inactive)
NCI-H522
  GI50: 26.5 µM (inactive)
OVCAR-3
  GI50: 19.7 µM (inactive)
OVCAR-4
  GI50: 17.9 µM (inactive)
OVCAR-5
  GI50: 45 µM (inactive)
OVCAR-8
  GI50: 15.5 µM (inactive)
PC-3
  GI50: 17.3 µM (inactive)
RPMI-8226
  GI50: 9.12 µM (inactive)
RXF 393
  GI50: 16.7 µM (inactive)
SF-268
  GI50: 12.4 µM (inactive)
SF-295
  GI50: 16.3 µM (inactive)
SF-539
  GI50: 0.735 µM (active)
SK-MEL-28
  GI50: 0.138 µM (active)
SK-MEL-2
  GI50: 27.4 µM (inactive)
SK-MEL-5
  GI50: 0.855 µM (active)
SK-OV-3
  GI50: 20 µM (inactive)
SN12C
  GI50: 17.2 µM (inactive)
SNB-19
  GI50: 20.3 µM (inactive)
SR
  GI50: 70 µM (inactive)
SW-620
  GI50: 0.834 µM (active)
TK-10
  GI50: 28.4 µM (inactive)
U-251
  GI50: 14.4 µM (inactive)
UACC-257
  GI50: 63.5 µM (inactive)
UACC-62
  GI50: 30.5 µM (inactive)
UO-31
  GI50: 15.5 µM (inactive)

## COc1cc(OC2OC(CO)C(O)C(O)C2O)c2c(O)c3c(=O)cc(C)oc3cc2c1 (stereo not given)
A498
  GI50: > 100 µM (inactive)
A549
  GI50: > 100 µM (inactive)
ACHN
  GI50: > 100 µM (inactive)
BT-549
  GI50: 29.5 µM (inactive)
CAKI-1
  GI50: > 100 µM (inactive)
CCRF-CEM
  GI50: > 100 µM (inactive)
COLO 205
  GI50: > 100 µM (inactive)
DU-145
  GI50: > 100 µM (inactive)
EKVX
  GI50: > 100 µM (inactive)
HCC 2998
  GI50: > 100 µM (inactive)
HCT-116
  GI50: > 100 µM (inactive)
HCT-15
  GI50: > 100 µM
HL-60
  GI50: > 100 µM (inactive)
HOP-62
  GI50: > 100 µM (inactive)
HOP-92
  GI50: > 10 µM (inactive)
HT-29
  GI50: > 100 µM (inactive)
Hs-578T
  GI50: > 100 µM (inactive)
IGROV-1
  GI50: > 100 µM (inactive)
K562
  GI50: > 100 µM (inactive)
KM12
  GI50: > 100 µM (inactive)
LOX IMVI
  GI50: > 100 µM (inactive)
M14
  GI50: > 100 µM (inactive)
MCF7
  GI50: > 100 µM (inactive)
MDA-MB-435
  GI50: > 100 µM (inactive)
MDA-N
  GI50: > 10 µM (inactive)
MOLT-4
  GI50: > 100 µM (inactive)
Malme-3M
  GI50: 67.1 µM (inactive)
NCI-H226
  GI50: 9.55 µM (inactive)
NCI-H23
  GI50: > 100 µM (inactive)
NCI-H460
  GI50: > 100 µM (inactive)
NCI-H522
  GI50: > 100 µM (inactive)
OVCAR-3
  GI50: > 100 µM (inactive)
OVCAR-4
  GI50: > 100 µM (inactive)
OVCAR-5
  GI50: > 100 µM (inactive)
OVCAR-8
  GI50: > 100 µM (inactive)
PC-3
  GI50: > 100 µM (inactive)
RPMI-8226
  GI50: > 100 µM (inactive)
SF-268
  GI50: 64.3 µM (inactive)
SF-295
  GI50: 65.5 µM (inactive)
SF-539
  GI50: 94 µM (inactive)
SK-MEL-28
  GI50: > 100 µM (inactive)
SK-MEL-2
  GI50: > 100 µM (inactive)
SK-MEL-5
  GI50: > 100 µM (inactive)
SK-OV-3
  GI50: > 100 µM (inactive)
SNB-19
  GI50: > 100 µM (inactive)
SNB-75
  GI50: > 100 µM (inactive)
SW-620
  GI50: > 100 µM (inactive)
T47D
  GI50: > 100 µM (inactive)
TK-10
  GI50: > 100 µM (inactive)
U-251
  GI50: > 100 µM (inactive)
UACC-257
  GI50: > 100 µM (inactive)
UACC-62
  GI50: > 100 µM (inactive)
UO-31
  GI50: > 100 µM (inactive)
